# Test results: ChEMBL document CHEMBL4257562, “Pseudomonas aeruginosa Quorum Sensing Systems as Drug Discovery Targets: Current Position and Future Perspectives” (J Med Chem, 2018)
# Key:
# [1] = Inhibition of Pseudomonas aeruginosa PA14 PqsBC catalytic activity using 2-ABA/octanoyl-CoA as substrate after 5 mins
# [2] = molecular target: T1, HTH-type quorum-sensing regulator RhlR (Pseudomonas aeruginosa (strain ATCC 15692 / PAO1 / 1C / PRS 101 / LMG12228)) (UniProt P54292); settings: 2.27 mM
# T1 sequence (whole entry): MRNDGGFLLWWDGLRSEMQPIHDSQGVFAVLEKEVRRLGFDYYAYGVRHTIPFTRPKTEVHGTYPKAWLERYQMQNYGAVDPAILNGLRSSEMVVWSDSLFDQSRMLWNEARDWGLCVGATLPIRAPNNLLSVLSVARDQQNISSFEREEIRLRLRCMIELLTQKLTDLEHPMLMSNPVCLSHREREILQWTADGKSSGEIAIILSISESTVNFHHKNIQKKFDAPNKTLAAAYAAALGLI
# Description: Antagonist activity at Pseudomonas aeruginosa PAO1 GFP-fused RhlR expressed in Escherichia coli DH5alpha co-expressing rhlA promoter assessed as inhibition of L-arabinose-induced C4-HSL production at 2.27 mM after 5 hrs relative to control
# [3] = molecular target: T2, Transcriptional activator protein LasR (Pseudomonas aeruginosa (strain ATCC 15692 / PAO1 / 1C / PRS 101 / LMG12228), UniProt P25084); test: Antagonist activity at GFP-fused LasR in Pseudomonas aeruginosa PAO-JP2 co-expressing LVAgfp plasmid by fluorescence assay
# T2 sequence (P25084 whole entry): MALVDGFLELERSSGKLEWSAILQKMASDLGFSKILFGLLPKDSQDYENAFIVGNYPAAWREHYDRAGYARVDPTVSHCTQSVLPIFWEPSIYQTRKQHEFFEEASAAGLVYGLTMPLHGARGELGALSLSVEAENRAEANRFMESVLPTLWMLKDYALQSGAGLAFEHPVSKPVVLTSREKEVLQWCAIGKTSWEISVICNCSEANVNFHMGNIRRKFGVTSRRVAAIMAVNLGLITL
# [4] = molecular target: T2, Transcriptional activator protein LasR; test: Antagonist activity at Pseudomonas aeruginosa LasR expressed in Escherichia coli DH5alpha assessed as inhibition of protein interaction with OdDHL after 1.5 hrs by beta-galactosidase reporter gene assay
# [5] = Antagonist activity at Escherichia coli DH5alpha PqsR by beta-galactosidase reporter gene assay
# [6] = molecular target: T3, Transcriptional activator protein LasR (Pseudomonas aeruginosa (strain ATCC 15692 / PAO1 / 1C / PRS 101 / LMG12228)) (UniProt P25084); test: Antagonist activity at Pseudomonas aeruginosa LasR expressed in Pseudomonas putida F117 assessed as inhibition of 3-oxo-C12-HSL-induced protein activation at 20 uM after 4 hrs by fluorescence assay relative to control
# T3 sequence (whole entry): T2 sequence (P25084 whole entry)
# [7] = molecular target: T4, Acyl-homoserine-lactone synthase (Pseudomonas aeruginosa (strain ATCC 15692 / PAO1 / 1C / PRS 101 / LMG12228)) (UniProt P33883); test: Inhibition of Pseudomonas aeruginosa PAO1 LasI after 10 mins by beta-galactosidase reporter gene assay
# T4 sequence (whole entry): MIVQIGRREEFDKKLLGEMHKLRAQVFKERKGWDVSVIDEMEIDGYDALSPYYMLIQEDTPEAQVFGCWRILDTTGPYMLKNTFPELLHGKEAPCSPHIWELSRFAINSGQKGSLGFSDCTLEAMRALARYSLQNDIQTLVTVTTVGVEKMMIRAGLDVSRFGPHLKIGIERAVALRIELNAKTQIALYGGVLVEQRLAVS
# [8] = molecular target: T2, Transcriptional activator protein LasR; test: Antagonist activity at LasR in Pseudomonas aeruginosa reporter strain
# [9] = molecular target: T2, Transcriptional activator protein LasR; test: Antagonist activity at LasR in Pseudomonas aeruginosa PAO1 harboring GFP-fused quorum sensing lasB measured every 15 mins for 14 hrs by GFP reporter gene assay
# [10] = molecular target: T2, Transcriptional activator protein LasR; test: Antagonist activity at Pseudomonas aeruginosa LasR expressed in Escherichia coli DH5alpha assessed as inhibition of […]-induced receptor activation after 4 hrs by Miller-type beta-galactosidase reporter gene assay
# [11] = molecular target: T5, 2-heptyl-4(1H)-quinolone synthase PqsD (Pseudomonas aeruginosa, UniProt A0A0C7ACN7); test: Inhibition of Pseudomonas aeruginosa PqsD
# T5 sequence (A0A0C7ACN7 whole entry): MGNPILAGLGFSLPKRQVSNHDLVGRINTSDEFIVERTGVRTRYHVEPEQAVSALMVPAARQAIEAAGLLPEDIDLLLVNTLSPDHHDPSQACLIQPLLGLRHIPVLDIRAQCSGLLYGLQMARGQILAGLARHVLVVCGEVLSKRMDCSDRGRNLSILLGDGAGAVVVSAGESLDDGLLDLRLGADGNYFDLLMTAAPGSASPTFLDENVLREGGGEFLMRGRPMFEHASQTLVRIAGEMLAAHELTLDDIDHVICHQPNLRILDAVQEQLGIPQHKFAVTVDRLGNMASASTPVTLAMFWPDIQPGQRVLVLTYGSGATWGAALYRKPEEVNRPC
# Pseudomonas aeruginosa [12] = test: Antibiofilm activity against Pseudomonas aeruginosa PA14 at 100 uM; type: functional
# [13] = molecular target: T5, 2-heptyl-4(1H)-quinolone synthase PqsD; test: Antagonist activity at Pseudomonas aeruginosa PqsD
# [14] = Antagonist activity at Pseudomonas aeruginosa His6/Sumo-tagged PqsR by beta-galactosidase reporter gene assay
# [15] = Antagonist activity at Escherichia coli His6/Sumo-tagged PqsR by beta-galactosidase reporter gene assay
# Pseudomonas aeruginosa [16] = test: Inhibition of Pseudomonas aeruginosa PQS signaling at 138 uM relative to control
# Escherichia coli = test: Antagonist activity at Escherichia coli LasR at 6 uM by luciferase reporter gene assay
# [17] = Inhibition of Pseudomonas aeruginosa PqsR
# [18] = molecular target: T5, 2-heptyl-4(1H)-quinolone synthase PqsD; test: Inhibition of recombinant Pseudomonas aeruginosa PqsD expressed in Escherichia coli using anthraniloyl-CoA as substrate assessed as decrease in HHQ production
# [19] = molecular target: T5, 2-heptyl-4(1H)-quinolone synthase PqsD; test: Binding affinity to recombinant Pseudomonas aeruginosa PqsD at 298 K by ITC assay
# [20] = molecular target: T3, Transcriptional activator protein LasR (Pseudomonas aeruginosa (strain ATCC 15692 / PAO1 / 1C / PRS 101 / LMG12228)); test: Inhibition of OC12-HSL-dependent LasR activation in Pseudomonas aeruginosa MH602 harboring GFP-fused quorum sensing lasB at 250 uM measured every 30 mins up to 15 hrs by GFP reporter gene assay
# [21] = Antagonist activity at Escherichia coli LasR assessed as inhibition of protein interaction with OdDHL by beta-galactosidase reporter gene assay
# [22] = molecular target: T2, Transcriptional activator protein LasR; test: Antagonist activity at Pseudomonas aeruginosa MW1 LasR assessed as inhibition of protein interaction with OdDHL by beta-galactosidase reporter gene assay
# Pseudomonas aeruginosa [23] = test: Inhibition of Pseudomonas aeruginosa quorum sensing system assessed as decrease in 3OC12-HSL production at 6 mM relative to control
# Pseudomonas aeruginosa [24] = test: Inhibition of Pseudomonas aeruginosa quorum sensing system assessed as decrease in C4-HSL production at 6 mM relative to control
# Pseudomonas aeruginosa [25] = test: In vivo inhibition of Pseudomonas aeruginosa PA14 PqsR in immunocompetent acute mouse thigh infection model assessed as decrease in PQS levels in plasma at 200 mg/kg, po administered at 2, 10, 18 and 26 hrs post infection measured at 12 hrs relative to control; type: functional
# [26] = molecular target: T6, HTH-type quorum-sensing regulator RhlR (Pseudomonas aeruginosa (strain ATCC 15692 / PAO1 / 1C / PRS 101 / LMG12228), UniProt P54292); test: Inhibition of Pseudomonas aeruginosa GFP-fused RhlR expressed in Escherichia coli BL21-Gold (DE3) co-expressing rhlA promoter by beta-galactosidase reporter gene assay
# T6 sequence (P54292 whole entry): T1 sequence (whole entry)
# [27] = Antagonist activity at Pseudomonas aeruginosa PqsR
# [28] = molecular target: T1, HTH-type quorum-sensing regulator RhlR (Pseudomonas aeruginosa (strain ATCC 15692 / PAO1 / 1C / PRS 101 / LMG12228)); test: Non-competitive inhibition of Pseudomonas aeruginosa RhlR expressed in Escherichia coli; settings: concentration not given here
# [29] = molecular target: T3, Transcriptional activator protein LasR (Pseudomonas aeruginosa (strain ATCC 15692 / PAO1 / 1C / PRS 101 / LMG12228)); test: Non-competitive inhibition of Pseudomonas aeruginosa LasR expressed in Escherichia coli; settings: concentration not given here
# [30] = molecular target: T2, Transcriptional activator protein LasR; test: Inhibition of LasR in Pseudomonas aeruginosa reporter strain harboring gfp-lasB
# [31] = molecular target: T2, Transcriptional activator protein LasR; test: Inhibition of LasR in Pseudomonas aeruginosa harboring GFP-fused quorum sensing lasB measured every 15 mins up to 12 hrs by GFP reporter gene assay
# [32] = Inhibition of Pseudomonas aeruginosa PqsBC assessed as decrease in conversion of 2-ABA/octanoyl-CoA to HHQ measured every 60 secs
smiles,measurement,setting,value
O=C(CSc1nc2ccc([N+](=O)[O-])cc2[nH]1)Nc1ccc(I)cc1,IC50,[1],13.4 µM
C[S+]([O-])CCCCN=C=S (configuration not stated),inhibition,[2],42.1%
O=C(Cc1ccc(Br)cc1)N[C@H]1CCOC1=O,IC50,[3],14.8 µM
CCCCCCCC(=O)N[C@H]1CCOC1=O,IC50,[4],0.34 µM
CCCCCCCc1cc(=O)c2cc([N+](=O)[O-])ccc2[nH]1,IC50,[5],0.051 µM
NC(=O)SCNc1ccccc1O,inhibition,[6],50 to 60%
CCCCCCC/C=C1\SC(=O)NC1=O,inhibition,[7],40%
NC(=O)SCNc1cccc(Cl)c1,inhibition,[6],50 to 60%
CCCCc1cn(CC(=O)N[C@H]2CCOC2=O)nn1,IC50,[8],3.27 µM
Nc1nc2nn[nH]c2c(=O)[nH]1 [8-AZAGUANINE],IC50,[9],0.64 µM
O=C(CCCCCCCCCN=C=S)CC(=O)N[C@H]1CCOC1=O,IC50,[10],134 µM
CCCCCCCc1cc(=O)c2cc(C(F)(F)F)ccc2[nH]1,IC50,[5],0.054 µM
CCCCCCS(=O)(=O)c1ncc(-n2ccnn2)cn1,IC50,[11],1.7 µM
same,Activity,Pseudomonas aeruginosa [12],60%
O=C(Nc1ccccc1C(=O)O)c1ccc(-c2ccccc2)c(Oc2ccccc2)c1,IC50,[13],35 µM
CC(C)(C)c1ccc(C(=O)NO)cc1,IC50,[14],23.6 µM
same,IC50,[15],12.5 µM
NCCCCCCCCCCCCNc1ccnc2cc(Cl)ccc12,inhibition,Pseudomonas aeruginosa [16],81%
Nc1cccc(-n2cc(CCC(=O)N[C@H]3CCOC3=O)nn2)c1,IC50,[8],4.03 µM
CCCCCCCSCC(=O)N[C@H]1CCOC1=O,inhibition,Escherichia coli,50%
CS(=O)(=O)c1ncc(-n2cnnn2)cn1,IC50,[17],15 µM
same,IC50,[11],21 µM
O=[N+]([O-])c1ccccc1C(O)c1ccccc1 (configuration not stated),IC50,[18],3.2 µM
same,Kd,[19],13 µM
O=C(CCCc1c[nH]c2ccccc12)N[C@H]1CCOC1=O,IC50,[3],16.1 µM
CCOC(=O)CNC(=O)C(=O)c1ccccc1Nc1ccc([N+](=O)[O-])cc1[N+](=O)[O-],inhibition,[20],48%
CCN(CC)S(=O)(=O)c1cc(C(=O)Nc2ccccc2C(=O)O)ccc1Br,IC50,[13],65 µM
O=C(NCCc1ccc(Br)cc1)c1ccccc1[N+](=O)[O-],IC50,[21],4.8 µM
O=C(Cc1cccc(I)c1)N[C@H]1CCOC1=O,IC50,[4],1.72 µM
CCCCCCCCNC(=O)CC(=O)c1ccccc1,IC50,[22],10 µM
O=C(CCCC1CCCCC1)N[C@H]1CCOC1=O,IC50,[4],10 µM
CCCCCCCOc1ccc(C(=O)N[C@H]2CCOC2=O)cc1,IC50,[4],1 µM
CN(C)CCc1ccc(O)cc1,inhibition,Pseudomonas aeruginosa [23],30%
same,inhibition,Pseudomonas aeruginosa [24],70%
NC(=O)c1cc2cc(Cl)ccc2cc1OCC(=O)c1c[nH]c2cc(C3CC3)ccc12,inhibition in vivo at 200 mg/kg,Pseudomonas aeruginosa [25],50%
O=C(CCCCOc1cccc(Br)c1)NC1CCSC1=O (configuration not stated),IC50,[26],8 µM
CS(=O)(=O)c1ncc(-n2cc(C(O)C3CCCC3)nn2)cn1 (configuration not stated),IC50,[27],26 µM
Cc1ccc2nc(SCC(=O)Nc3ccc(Br)cc3)[nH]c2c1,IC50,[1],12.5 µM
O=c1cc(-c2ccccc2)oc2c(O)c(O)ccc12,inhibition,[28],> 70%
same,inhibition,[29],> 70%
O=C(N[C@H]1CCOC1=O)c1ccc(-n2cc(CSc3ccccc3)nn2)cc1,IC50,[8],2.64 µM
C=CCSS/C=C/C[S+]([O-])CC=C (configuration not stated) [AJOENE],IC50,[30],15 µM
O=C(CCc1ccc(Br)cc1)N[C@H]1CCOC1=O,IC50,[4],0.25 µM
Nc1ccc(S(=O)(=O)Nc2nccs2)cc1 [SULFATHIAZOLE],IC50,[31],9 µM
O=C(CCSc1ccc(Cl)cc1)N[C@H]1CCOC1=O,IC50,[8],5.2 µM
CC(=O)c1ccccc1N [2-AMINOACETOPHENONE],EC50,[32],46 µM
CCCCCC(=O)Nc1c(-c2ccccc2)[nH]c2ccccc12,inhibition,[20],65%
